Source: the supplement of paper PMC10307832

Key:
Experiment in all cases: relative viability (nuclei count vs DMSO), 5 days (fraction); higher = more cells survive
OSI-027 + AZD7762 = compound: COc1cccc2cc(-c3nc([C@H]4CC[C@H](C(=O)O)CC4)n4ncnc(N)c34)[nH]c12 [OSI-027] + NC(=O)Nc1cc(-c2cccc(F)c2)sc1C(=O)N[C@H]1CCCNC1 [AZD7762] (partner 0.2 µM)
How it was run: (§1)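 Each reported value is a median over duplicate plates. It expresses relative viability: treated-well nuclei count divided by vehicle-well nuclei count. Lung cancer cell lines in 1536-well plates were dosed by pin tool a day after seeding, alone with one drug or with a fixed anchor-drug dose plus five library-drug doses (not always all listed) in √10 steps, and nuclei were counted after 5 days.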

OSI-027 + Decitabine = compound: COc1cccc2cc(-c3nc([C@H]4CC[C@H](C(=O)O)CC4)n4ncnc(N)c34)[nH]c12 [OSI-027] + Nc1ncn([C@H]2C[C@H](O)[C@@H](CO)O2)c(=O)n1 [Decitabine] (partner 2 µM)
How it was run: as §1

OSI-027 + Olaparib = compound: COc1cccc2cc(-c3nc([C@H]4CC[C@H](C(=O)O)CC4)n4ncnc(N)c34)[nH]c12 [OSI-027] + O=C(c1cc(Cc2n[nH]c(=O)c3ccccc23)ccc1F)N1CCN(C(=O)C2CC2)CC1 [Olaparib] (partner 8 µM)
How it was run: as §1

Alpelisib + Bortezomib = compound: Cc1nc(NC(=O)N2CCC[C@H]2C(N)=O)sc1-c1ccnc(C(C)(C)C(F)(F)F)c1 [Alpelisib] + CC(C)C[C@H](NC(=O)[C@H](Cc1ccccc1)NC(=O)c1cnccn1)B(O)O [Bortezomib] (partner 0.002 µM)
How it was run: as §1

In the case of NCI-H838, the relative viability (OSI-027 + AZD7762; first compound 0.01 µM) is reported as 0.923, the relative viability (OSI-027 + AZD7762; first compound 0.03162 µM) is reported as 0.838 and the relative viability (OSI-027 + AZD7762; first compound 0.1 µM) is reported as 0.855. For the same cell line, the relative viability (OSI-027 + AZD7762; first compound 0.3162 µM) was 0.806, the relative viability (OSI-027 + AZD7762; first compound 1 µM) was 0.801 and the relative viability (OSI-027 + Decitabine; first compound 0.01 µM) was 0.503. It also gave a relative viability (OSI-027 + Decitabine; first compound 0.03162 µM) of 0.483, a relative viability (OSI-027 + Decitabine; first compound 0.1 µM) of 0.403 and a relative viability (OSI-027 + Decitabine; first compound 0.3162 µM) of 0.378. It also gave a relative viability (OSI-027 + Decitabine; first compound 1 µM) of 0.337, a relative viability (OSI-027 + Olaparib; first compound 0.01 µM) of 0.791 and a relative viability (OSI-027 + Olaparib; first compound 0.03162 µM) of 0.856. It also gave a relative viability (OSI-027 + Olaparib; first compound 0.1 µM) of 0.705, a relative viability (OSI-027 + Olaparib; first compound 0.3162 µM) of 0.492 and a relative viability (OSI-027 + Olaparib; first compound 1 µM) of 0.437. The relative viability (Alpelisib + Bortezomib; first compound 0.04 µM) was 0.692, the relative viability (Alpelisib + Bortezomib; first compound 0.1265 µM) was 0.482 and the relative viability (Alpelisib + Bortezomib; first compound 0.4 µM) was 0.668. For the same cell line, the relative viability (Alpelisib + Bortezomib; first compound 1.265 µM) was 0.782 and the relative viability (Alpelisib + Bortezomib; first compound 4 µM) was 0.487.

NCI-H1993 was tested, and the relative viability (OSI-027 + AZD7762; first compound 0.01 µM) was 0.777, the relative viability (OSI-027 + AZD7762; first compound 0.03162 µM) was 0.728 and the relative viability (OSI-027 + AZD7762; first compound 0.1 µM) was 0.606. The relative viability (OSI-027 + AZD7762; first compound 0.3162 µM) was 0.542, the relative viability (OSI-027 + AZD7762; first compound 1 µM) was 0.416 and the relative viability (OSI-027 + Decitabine; first compound 0.01 µM) was 0.53. For the same cell line, the relative viability (OSI-027 + Decitabine; first compound 0.03162 µM) was 0.538, the relative viability (OSI-027 + Decitabine; first compound 0.1 µM) was 0.569 and the relative viability (OSI-027 + Decitabine; first compound 0.3162 µM) was 0.432. The relative viability (OSI-027 + Decitabine; first compound 1 µM) was 0.431, the relative viability (OSI-027 + Olaparib; first compound 0.01 µM) was 1.03 and the relative viability (OSI-027 + Olaparib; first compound 0.03162 µM) was 0.894. For the same cell line, the relative viability (OSI-027 + Olaparib; first compound 0.1 µM) was 0.902, the relative viability (OSI-027 + Olaparib; first compound 0.3162 µM) was 0.653 and the relative viability (OSI-027 + Olaparib; first compound 1 µM) was 0.522. For the same cell line, the relative viability (Alpelisib + Bortezomib; first compound 0.04 µM) was 1.09, the relative viability (Alpelisib + Bortezomib; first compound 0.1265 µM) was 1.03 and the relative viability (Alpelisib + Bortezomib; first compound 0.4 µM) was 1.02. The relative viability (Alpelisib + Bortezomib; first compound 1.265 µM) was 0.791 and the relative viability (Alpelisib + Bortezomib; first compound 4 µM) was 0.489.

With NCI-H1437 the relative viability (OSI-027 + AZD7762; first compound 0.01 µM) was 1.11, the relative viability (OSI-027 + AZD7762; first compound 0.03162 µM) was 1.02 and the relative viability (OSI-027 + AZD7762; first compound 0.1 µM) was 1.14. The relative viability (OSI-027 + AZD7762; first compound 0.3162 µM) was 1, the relative viability (OSI-027 + AZD7762; first compound 1 µM) was 0.566 and the relative viability (OSI-027 + Decitabine; first compound 0.01 µM) was 0.499. It also gave a relative viability (OSI-027 + Decitabine; first compound 0.03162 µM) of 0.614, a relative viability (OSI-027 + Decitabine; first compound 0.1 µM) of 0.63 and a relative viability (OSI-027 + Decitabine; first compound 0.3162 µM) of 0.493. It also gave a relative viability (OSI-027 + Decitabine; first compound 1 µM) of 0.387, a relative viability (OSI-027 + Olaparib; first compound 0.01 µM) of 0.646 and a relative viability (OSI-027 + Olaparib; first compound 0.03162 µM) of 0.664. The relative viability (OSI-027 + Olaparib; first compound 0.1 µM) was 0.63, the relative viability (OSI-027 + Olaparib; first compound 0.3162 µM) was 0.644 and the relative viability (OSI-027 + Olaparib; first compound 1 µM) was 0.53. For the same cell line, the relative viability (Alpelisib + Bortezomib; first compound 0.04 µM) was 0.504, the relative viability (Alpelisib + Bortezomib; first compound 0.1265 µM) was 0.515 and the relative viability (Alpelisib + Bortezomib; first compound 0.4 µM) was 0.497. The relative viability (Alpelisib + Bortezomib; first compound 1.265 µM) was 0.49 and the relative viability (Alpelisib + Bortezomib; first compound 4 µM) was 0.508.

Cell Line NCI-H647 has a relative viability (OSI-027 + AZD7762; first compound 0.01 µM) of 0.402, a relative viability (OSI-027 + AZD7762; first compound 0.03162 µM) of 0.558 and a relative viability (OSI-027 + AZD7762; first compound 0.1 µM) of 0.362. For the same cell line, the relative viability (OSI-027 + AZD7762; first compound 0.3162 µM) was 0.314, the relative viability (OSI-027 + AZD7762; first compound 1 µM) was 0.348 and the relative viability (OSI-027 + Decitabine; first compound 0.01 µM) was 0.385. It also gave a relative viability (OSI-027 + Decitabine; first compound 0.03162 µM) of 0.543, a relative viability (OSI-027 + Decitabine; first compound 0.1 µM) of 0.397 and a relative viability (OSI-027 + Decitabine; first compound 0.3162 µM) of 0.248. For the same cell line, the relative viability (OSI-027 + Decitabine; first compound 1 µM) was 0.211, the relative viability (OSI-027 + Olaparib; first compound 0.01 µM) was 0.681 and the relative viability (OSI-027 + Olaparib; first compound 0.03162 µM) was 0.613. It also gave a relative viability (OSI-027 + Olaparib; first compound 0.1 µM) of 0.56, a relative viability (OSI-027 + Olaparib; first compound 0.3162 µM) of 0.463 and a relative viability (OSI-027 + Olaparib; first compound 1 µM) of 0.398. For the same cell line, the relative viability (Alpelisib + Bortezomib; first compound 0.04 µM) was 0.75, the relative viability (Alpelisib + Bortezomib; first compound 0.1265 µM) was 1.1 and the relative viability (Alpelisib + Bortezomib; first compound 0.4 µM) was 1.34. It also gave a relative viability (Alpelisib + Bortezomib; first compound 1.265 µM) of 0.944 and a relative viability (Alpelisib + Bortezomib; first compound 4 µM) of 0.922.

In the case of HCC-78, the relative viability (OSI-027 + AZD7762; first compound 0.01 µM) is reported as 0.62, the relative viability (OSI-027 + AZD7762; first compound 0.03162 µM) is reported as 0.638 and the relative viability (OSI-027 + AZD7762; first compound 0.1 µM) is reported as 0.488. It also gave a relative viability (OSI-027 + AZD7762; first compound 0.3162 µM) of 0.499, a relative viability (OSI-027 + AZD7762; first compound 1 µM) of 0.354 and a relative viability (OSI-027 + Decitabine; first compound 0.01 µM) of 0.77. For the same cell line, the relative viability (OSI-027 + Decitabine; first compound 0.03162 µM) was 0.749, the relative viability (OSI-027 + Decitabine; first compound 0.1 µM) was 0.616 and the relative viability (OSI-027 + Decitabine; first compound 0.3162 µM) was 0.547. It also gave a relative viability (OSI-027 + Decitabine; first compound 1 µM) of 0.457, a relative viability (OSI-027 + Olaparib; first compound 0.01 µM) of 0.769 and a relative viability (OSI-027 + Olaparib; first compound 0.03162 µM) of 0.699. It also gave a relative viability (OSI-027 + Olaparib; first compound 0.1 µM) of 0.723, a relative viability (OSI-027 + Olaparib; first compound 0.3162 µM) of 0.558 and a relative viability (OSI-027 + Olaparib; first compound 1 µM) of 0.397. For the same cell line, the relative viability (Alpelisib + Bortezomib; first compound 0.04 µM) was 0.427, the relative viability (Alpelisib + Bortezomib; first compound 0.1265 µM) was 0.474 and the relative viability (Alpelisib + Bortezomib; first compound 0.4 µM) was 0.686. The relative viability (Alpelisib + Bortezomib; first compound 1.265 µM) was 0.337 and the relative viability (Alpelisib + Bortezomib; first compound 4 µM) was 0.366.

With ABC-1 the relative viability (OSI-027 + AZD7762; first compound 0.01 µM) was 0.886, the relative viability (OSI-027 + AZD7762; first compound 0.03162 µM) was 0.764 and the relative viability (OSI-027 + AZD7762; first compound 0.1 µM) was 0.728. For the same cell line, the relative viability (OSI-027 + AZD7762; first compound 0.3162 µM) was 0.555, the relative viability (OSI-027 + AZD7762; first compound 1 µM) was 0.602 and the relative viability (OSI-027 + Decitabine; first compound 0.01 µM) was 1.03. The relative viability (OSI-027 + Decitabine; first compound 0.03162 µM) was 1.33, the relative viability (OSI-027 + Decitabine; first compound 0.1 µM) was 1.16 and the relative viability (OSI-027 + Decitabine; first compound 0.3162 µM) was 1.05. The relative viability (OSI-027 + Decitabine; first compound 1 µM) was 0.762, the relative viability (OSI-027 + Olaparib; first compound 0.01 µM) was 0.667 and the relative viability (OSI-027 + Olaparib; first compound 0.03162 µM) was 0.686. For the same cell line, the relative viability (OSI-027 + Olaparib; first compound 0.1 µM) was 0.795, the relative viability (OSI-027 + Olaparib; first compound 0.3162 µM) was 0.859 and the relative viability (OSI-027 + Olaparib; first compound 1 µM) was 0.404. It also gave a relative viability (Alpelisib + Bortezomib; first compound 0.04 µM) of 0.312, a relative viability (Alpelisib + Bortezomib; first compound 0.1265 µM) of 0.295 and a relative viability (Alpelisib + Bortezomib; first compound 0.4 µM) of 0.268. It also gave a relative viability (Alpelisib + Bortezomib; first compound 1.265 µM) of 0.363 and a relative viability (Alpelisib + Bortezomib; first compound 4 µM) of 0.266.
